In US4321384A, “Antihypertensive agents” (American Home Products Corporation, priority 1981, dated 1982):
Structures can show the parent of a compound that is named as a salt.

Legend:
rabbit aortic strips [1] = assay: Ca+2 antagonism: relaxation of potassium-contracted rabbit aortic strips; format: cell-based; settings: Oryctolagus cuniculus; 10^-6 M bath concentration; strips contracted with 100 millimoles potassium ion; read-out: percent relaxation (P.R.)
[2] = tested on: spontaneously hypertensive rats; assay: Systolic blood pressure lowering in spontaneously hypertensive rats; format: in vivo, rat; settings: 1.5 hours post dose 25 mg/kg
rabbit aortic strips [3] = assay: Ca+2 antagonism: relaxation of potassium-contracted rabbit aortic strips; format: cell-based; settings: Oryctolagus cuniculus; 10^-5 M bath concentration; strips contracted with 100 millimoles potassium ion; read-out: percent relaxation (P.R.)
Procedure: After a stable active tension has developed in the strip, as measured by Statham UC-2 force transducers and recorded on an eight channel Beckman Dynograph Polygraphic Recorder, an amount of the antagonist was added to the organ bath to make a 10^-5 molar concentration of antagonist. The […] effect, expressed as percent relaxation, was taken from the mean of at least two experiments. […] A Ca^+2 antagonist producing a 20 percent relaxation of aortic tissue in this test procedure at a 10^-5 molar bath concentration of the antagonist, generally produces a significant reduction in blood pressure when a sufficient amount is given to the spontaneously hypertensive rat. The following examples illustrate the preparation of a representative number of compounds of this invention. After each example, the Ca^+2 antagonist activity of the compound is presented in terms of percent relaxation (P.R.) at the stated concentration. Similarly, the antihypertensive activity is reported in terms of millimeters mercury (mmHg) blood pressure (B.P.) reduction at the stated time post 50 mg/kg oral dosing.

[4] = tested on: spontaneously hypertensive rats; assay: Systolic blood pressure lowering in spontaneously hypertensive rats; format: in vivo, rat
Procedure: The in vivo blood pressure lowering ability of the compounds of this invention was established by measuring the systolic pressure of spontaneously hypertensive rats with a Decker Caudal Plethysmograph or similar sensor device. The compound being tested is administered to groups of four rats and their blood pressure is read prior to compound administration and at 1.5 and 4 hours after compound administration. Depending upon the behavior of the compound being tested, the schedule of blood pressure readings and route of administration is modified. Initially the compounds are administered orally but where compound solubility is a factor, the compounds may be administered parenterally (i.e. i.p., i.m., s.c., i.v., etc.) as desired. The compounds of this invention were initially administered orally at a standard testing dose of 50 mg/kg.
The following examples illustrate the preparation of a representative number of compounds of this invention. After each example, the Ca^+2 antagonist activity of the compound is presented in terms of percent relaxation (P.R.) at the stated concentration. Similarly, the antihypertensive activity is reported in terms of millimeters mercury (mmHg) blood pressure (B.P.) reduction at the stated time post 50 mg/kg oral dosing.

[5] = 1.5 hours post 50 mg/kg oral dosing
[6] = 4 hours post 50 mg/kg oral dosing

Compound | inhibition at 1 µM (rabbit aortic strips [1]) | blood pressure (B.P.) reduction [2] | inhibition at 10 µM (rabbit aortic strips [3]) | blood pressure (B.P.) reduction [4, 5] | blood pressure (B.P.) reduction [4, 6]
COC(=O)C1=C(C)NC2=C(C(=O)CN(Cc3ccccc3)C2)C1c1ccccc1C(F)(F)F (stereo not shown) [Example 5, 1,4,5,6,7,8-Hexahydro-2-methyl-5-oxo-7-(phenylmethyl)-4-[2-(trifluoromethyl)phenyl]-1,7-naphthyridine-3-carboxylic acid methyl ester] | 40% |  |  |  | 
COC(=O)C1=C(C)NC2=C(C(=O)CNC2)C1c1cccc([N+](=O)[O-])c1 (stereo not shown) [Example 13, 1,4,5,6,7,8-Hexahydro-2-methyl-4-(3-nitrophenyl)-5-oxo-1,7-naphthyridine-3-carboxylic acid methyl ester] |  | -58 mmHg | 86.5% |  | 
COC(=O)C1=C(C)NC2=C(C(=O)CN(Cc3ccccc3)C2)C1c1cccc([N+](=O)[O-])c1 (stereo not shown) [Example 10, 1,4,5,6,7,8-Hexahydro-2-methyl-4-(3-nitrophenyl)-5-oxo-7-(phenylmethyl)-1,7-naphthyridine-3-carboxylic acid methyl ester] | 89.7% |  |  |  | 
CC1=C(C(=O)OCCN(C)Cc2ccccc2)C(c2ccccc2C(F)(F)F)C2=C(CN(Cc3ccccc3)CC2=O)N1 (stereo not shown) [Example 22, 1,4,5,6,7,8-Hexahydro-2-methyl-5-oxo-7-phenylmethyl-4-[2-(trifluoromethyl)phenyl]-1,7-naphthyridine-3-carboxylic acid, 2-(N-benzyl-N-methylamino)ethylester] | 55.6% |  |  | -74 mmHg | -68 mmHg
CCCCc1ccccc1C1C(C(=O)OC)=C(C)NC2=C1C(=O)CN(Cc1ccccc1)C2 (stereo not shown) [Example 18, 4-[2-(n-butyl)phenyl]-1,4,5,6,7,8-Hexahydro-2-methyl-5-oxo-7-(phenylmethyl)-1,7-naphthyridine-3-carboxylic acid methyl ester] | 61% |  |  |  | 
COC(=O)C1=C(C)NC2=C(C(=O)CN(Cc3ccccc3)C2)C1c1cccc(C(F)(F)F)c1 (stereo not shown) [Example 14 intermediate, 1,4,5,6,7,8-hexahydro-2-methyl-5-oxo-7-(phenylmethyl)-4-[3-(trifluoromethyl)phenyl]-1,7-naphthyridine-3-carboxylic acid methyl ester hydrochloride] | 46.2% |  |  |  | 
COC(=O)C1=C(C)NC2=C(C(=O)CN(C)C2)C1c1ccccc1C(F)(F)F (stereo not shown) [Example 4, 1,4,5,6,7,8-Hexahydro-2,7-dimethyl-5-oxo-4-[2-(trifluoromethyl)-phenyl]-1,7-naphthyridine-3-carboxylic acid methyl ester] |  |  | 48% | -68 mmHg | -70 mmHg
COC(=O)C1=C(C)NC2=C(C(=O)CN(Cc3ccccc3)C2)C1c1ccccc1C (stereo not shown) [Example 3, 1,4,5,6,7,8-Hexahydro-2-methyl-4-(2-methylphenyl)-5-oxo-7-(phenylmethyl)-1,7-naphthyridine-3-carboxylic acid methyl ester] | 90% |  |  | -23 mmHg | -41 mmHg
COC(=O)C1=C(C)NC2=C(C(=O)CN(Cc3ccccc3)C2)C1c1cccc(C)c1C (stereo not shown) [Example 20, 4-(2,3-dimethylphenyl)-1,4,5,6,7,8-hexahydro-2-methyl-5-oxo-7-(phenylmethyl)-1,7-naphthyridine-3-carboxylic acid methyl ester] | 33.3% |  | 80.4% | -24 mmHg | -39 mmHg
COC(=O)C1=C(C)NC2=C(C(=O)CN(C)C2)C1c1c(Cl)cccc1Cl (stereo not shown) [Example 9, 4-(2,6-Dichlorophenyl)-1,4,5,6,7,8-hexahydro-2,7-dimethyl-5-oxo-1,7-naphthyridine-3-carboxylic acid methyl ester] |  |  | 41.5% | -22 mmHg | -43 mmHg
COC(=O)C1=C(C)NC2=C(C(=O)CN(Cc3ccccc3)C2)C1c1ccccc1F (stereo not shown) [Example 15 intermediate, 4-(2-fluorophenyl)-1,4,5,6,7,8-hexahydro-2-methyl-5-oxo-7-(phenylmethyl)-1,7-naphthyridine-3-carboxylic acid methyl ester hydrochloride] | 48% |  |  |  | 
COC(=O)C1=C(C)NC2=C(C(=O)CNC2)C1c1ccccc1F (stereo not shown) [Example 15, 4-(2-Fluorophenyl)-1,4,5,6,7,8-hexahydro-2-methyl-5-oxo-1,7-naphthyridine-3-carboxylic acid methyl ester] |  |  | 54% | -45 mmHg | 
COC(=O)C1=C(C)NC2=C(C(=O)CNC2)C1c1cccc(C(F)(F)F)c1 (stereo not shown) [Example 14, 1,4,5,6,7,8-Hexahydro-2-methyl-5-oxo-4-[3-(trifluoromethyl)phenyl]-1,7-naphthyridine-3-carboxylic acid methyl ester] |  |  | 84% | -51 mmHg | -43 mmHg
